Measured values as given in patent publication US20080039515A1, “Arylpyrazoles And Methods Of Using Same For Control Of Insect Pests That Bore Into Trees” (The Texas A&M University System, priority 2004, published 2008).
Read-outs that look alike come from different tables or passages of the source.

Key:
[1] = system: loblolly pine trees, Pinus taeda L.; conditions: in vivo
Description: Treatment Methods: Trial 1: Loblolly pine trees, Pinus taeda L., 15-20 cm (=6-9 inch) diameter at breast height (DBH), were selected in March of the study year in a 20-year-old pine stand in east Texas (Angelina County). Each treatment was injected into four cardinal points about 0.3 m above the ground on each of 15 trees in April (16th-23rd) using the Arborjet Tree IV™ microinfusion system (Arborjet, Inc. Woburn, Mass.).
At the time of tree felling, a section of lower bole (˜60-80 cm) containing the injection points was taken from each injected tree. The bark was later removed around the injection points to determine if any damage had resulted from the installation of plugs and/or injection of chemicals. If damage was found, the length and width of any ‘lesions’ (discolored areas on the surface of the xylem) were measured.

[2] = system: Cerambycid; type: in vivo, cerambycids; conditions: for Number of Attacks/0.3 m bole section at 3 m after 24 days: Cerambycid: 576 h
Description: After 5 weeks post-injection (May 28), frills were cut with a hatchet into the sapwood between the injection points near the base of the tree. A cellulose. sponge was inserted into each cut and loaded with I0 ml of a 4:1 mix of sodium N-methyldithiocarbamate (MS) (Woodfume®; Osmose, Inc., Buffalo, N.Y.) plus dimethyl sulfoxide (DMSO) (Aldrich Chemical) (Roton 1987, Strom et al. 2004). This method reduces resin to near zero in 1-2 weeks. The intent was to stress the tree and make it susceptible to attack by bark beetles without killing it. Pheromone packets containing racemic ipsdienol+lanerione, ipsenol or cis-verbenol were attached (June 7) atop 3 m stakes evenly spaced in between and around the study trees to encourage attack by the three Ips engraver species. […] Thus, ipsdienol and cis-verbenol pheromone baits were deployed on all stakes on June 17th. The baits were changed every 4 weeks.
Trial 2. Three weeks after pheromone deployment (June 28), each tree was evaluated by marking a 30 cm (1 ft) section of bole at a height of 3 m (10 ft). All visible Ips attacks and cerambycid egg niches were counted within the marked area. The number of trees with fading crowns also was recorded. Thereafter, the trees were evaluated weekly for crown fading. When mortality did occur, the trees were felled and two bolts taken and evaluated for attack success and gallery length as described in Trial 1. All remaining trees were felled 66 days (Aug. 9) after initial pheromone deployment when no additional trees had died for 2 weeks. Treatment efficacy was determined by comparing tree survival, beetle attacks and egg gallery length on treated and untreated bolts. As before, data were transformed and analyzed by GLM and the Fisher's Protected LSD test using the Statview statistical program.

Compound | Lesion Length ([1]; 1 month) | Lesion Width ([1]; 1 month) [a cm] | Lesion Length ([1]; 3 months) [a cm] | Lesion Width ([1]; 3 months) [cm] | Borer Feeding Area (% of Total Area) [2] | Number of Attacks/0.3 m bole section at 3 m after 24 days: Cerambycid [2] [a]
N#Cc1nn(-c2c(Cl)cc(C(F)(F)F)cc2Cl)c(N)c1[S+]([O-])C(F)(F)F (centres unmarked) [Fip, 5-amino-3-cyano-1-(2,6-dichloro-4-trifluoromethylphenyl)-4-trifluoromethylsulfinylpyrazole] | 4.1 a cm | 1.5 | 4.1 | 1.4 | 0.0 % of Total Area | 1.3
O=[N+]([O-])NC1=NCCN1Cc1ccc(Cl)nc1 [Imid] | 7.3 b cm | 1.7 | 6.1 | 1.3 | – | 4.7
